Data published in PMC6946680, “Modulation of brain cation-Cl^− cotransport via the SPAK kinase inhibitor ZT-1a” (Nature Communications, 2020).
Values joined by “and” are separate entries in the source; they are usually repeats but may differ in a detail not shown here. Equal values may be shown once. “Also recorded” adds a separate entry of the source.

Legend:
NKCC1 = assay: 86Rb+ uptake assay for NKCC1 activity in HEK-293 cells; assay type: cell-based; design: key to 86Rb+ uptake: 86Rb+ uptake in CPM per mg protein; settings: for 86Rb+ uptake: Fig 3b, NKCC1 + Bum (0.1 mM), replicates, listed as Bum
Procedure: (§1) Thirty-six hours post transfection, cells were exposed for 30 min to either control isotonic conditions or hypotonic low [Cl^−] conditions (to activate the SPAK/OSR1 pathway), and then treated for an additional 30 min in the same conditions with the indicated ZT-1a concentrations in the presence of 1 mM ouabain and 0.1 mM bumetanide. Ten-minute ^86Rb^+ uptake values were quantified by scintillation counting, normalized per mg protein for each condition, and plotted for both isotonic and hypotonic conditions. ***p < 0.001; **p < 0.01; *p < 0.05; ns—nonsignificant [by one-way ANOVA with post hoc testing (n = 6, error bars represent the mean ± SEM)]. b ^86Rb^+ uptake assays in the presence of ZT-1a measure transport activity of NKCC1. […] Thirty-six hours post transfection, cells were exposed for 30 min to either control isotonic conditions or hypotonic low [Cl^−] conditions (to activate the SPAK/OSR1 pathway), and then treated in the same conditions for an additional 30 min with 10 µM ZT-1a or 0.1 mM bumetanide (Bum) in the presence of 1 mM ouabain (Na^+/K^+-ATPase inhibitor). ^86Rb^+ uptake was allowed to proceed for 10 min and was then quantified by scintillation counting. ^86Rb^+ uptake CPMs were normalized per mg protein and plotted for both isotonic and hypotonic conditions. […] Thirty-six hours post transfection, cells were exposed for 30 min to either control isotonic conditions or hypotonic low [Cl^−] conditions (to activate the SPAK/OSR1 pathway), and then treated for an additional 30 min in the same conditions with the indicated ZT-1a concentrations in the presence of 1 mM ouabain. Ten-minute ^86Rb^+ uptake values were quantified by scintillation counting, normalized per mg protein for each condition, and plotted for both isotonic and hypotonic conditions. ***p < 0.001; **p < 0.01; *p < 0.05; ns—nonsignificant [by one-way ANOVA with post hoc testing (n = 6, error bars represent the mean ± SEM)].
(§2) This stimulating medium was then removed and replaced with isotonic medium containing inhibitors plus 2 µCi/ml ^86Rb^+. After incubation for 10 min at 37 °C, cells were rapidly washed three times with the respective ice-cold nonradioactive medium. Washed cells were lysed in 300 µl of ice-cold lysis buffer and ^86Rb^+ uptake was quantitated by liquid scintillation counting (PerkinElmer).

[1] = system: mouse primary cortical neurons; assay: Cell volume measurement (calcein-AM) under hyperosmotic stress, primary cortical neurons
HEK-293 cells = assay: 86Rb+ uptake assay in empty-vector-transfected HEK-293 cells; assay type: cell-based, human; design: key: 86Rb+ uptake in CPM per mg protein; settings: Fig 3b, Empty V + Bum (0.1 mM), ouabain, replicates, listed as Bum
Procedure: as §1, §2

human fibroblast cells = assay: Cell volume measurement (calcein-AM) under hyperosmotic stress, human fibroblasts; settings: hypertonic 515 mOsm; BMT or ZT-1a
[2] = system: mouse model of ischemic stroke (tMCAO); assay: Infarct volume and hemispheric swelling (TTC) 24 h after tMCAO; assay type: in vivo
mice = settings: mouse, in vivo
Procedure: Post-stroke administration of Closantel in mice reduced ischemic cerebral infarction size and brain swelling in a dose-dependent manner. However, we detected Closantel toxicity in mice at higher doses (~25 mg/kg), consistent with reported adverse effects in humans, including weakness, visual impairment, and blindness[72],[73]. The in vitro nanomolar-potency pan-WNK-kinase inhibitor WNK463 was developed as an antihypertensive drug[74]. […] Although the causes of these adverse effects remain unclear, they also discouraged efficacy testing of WNK463 at higher doses.

Structure (SMILES): CCCCNc1cc(C(=O)O)cc(S(N)(=O)=O)c1Oc1ccccc1 [bumetanide, reference compound]
- K+ flux of cells transfected with empty vector or NKCC1 wt cDNA (NKCC1; 0.1 mM bumetanide, isotonic or hypotonic low Cl−): significantly decreased K^+ flux
- 86Rb+ uptake (NKCC1; Hypotonic low Cl-): 9502.3 and 11310.4 and 9641.4 and 10421.5 and 10765.4 and 9047.7
- 86Rb+ uptake (NKCC1; Isotonic control): 1674.6 and 1506.3 and 1758.1 and 1840.4 and 1694.7 and 1729.5
- Cell water (relative change) ([1]; Fig 5b trace, Time 1.00403): 0.9843 relative change
- Cell water (relative change) ([1]; Fig 5b trace, Time 2.00427): 1.007 relative change
- Cell water (relative change) ([1]; Fig 5b trace, Time 3.00425): 1.002 relative change
- Cell water (relative change) ([1]; Fig 5b trace, Time 4.00423): 1.004 relative change
- Cell water (relative change) ([1]; Fig 5b trace, Time 5.0042): 1.002 relative change
- Cell water (relative change) ([1]; Fig 5b trace, Time 6.00445): 0.7352 relative change
- Cell water (relative change) ([1]; Fig 5b trace, Time 7.00442): 0.6913 relative change
- Cell water (relative change) ([1]; Fig 5b trace, Time 8.00435): 0.6745 relative change
- Cell water (relative change) ([1]; Fig 5b trace, Time 9.00452): 0.6038 relative change
- Cell water (relative change) ([1]; Fig 5b trace, Time 10.0046): 0.5839 relative change
- Cell water (relative change) ([1]; Fig 5b trace, Time 11.0045): 0.5893 relative change
- Cell water (relative change) ([1]; Fig 5b trace, Time 12.0045): 0.5422 relative change
- Cell water (relative change) ([1]; Fig 5b trace, Time 13.0045): 0.523 relative change
- Cell water (relative change) ([1]; Fig 5b trace, Time 14.0045): 0.4977 relative change
- Cell water (relative change) ([1]; Fig 5b trace, Time 15.0047): 0.5231 relative change
- Cell water (relative change) ([1]; Fig 5b trace, Time 16.0047): 0.4947 relative change
- Cell water (relative change) ([1]; Fig 5b trace, Time 17.0047): 0.4924 relative change
- Cell water (relative change) ([1]; Fig 5b trace, Time 18.0047): 0.4545 relative change
- Cell water (relative change) ([1]; Fig 5b trace, Time 19.0049): 0.4799 relative change
- Cell water (relative change) ([1]; Fig 5b trace, Time 20.0049): 0.4586 relative change
- Cell water (relative change) ([1]; Fig 5b trace, Time 21.0048): 0.4488 relative change
- Cell water (relative change) ([1]; Fig 5b trace, Time 22.0048): 0.4846 relative change
- Cell water (relative change) ([1]; Fig 5b trace, Time 23.005): 0.4766 relative change
- Cell water (relative change) ([1]; Fig 5b trace, Time 24.0048): 0.4819 relative change
- Cell water (relative change) ([1]; Fig 5b trace, Time 25.005): 0.4751 relative change
- Cell water (relative change) ([1]; Fig 5b trace, Time 26.0053): 0.6008 relative change
- Cell water (relative change) ([1]; Fig 5b trace, Time 27.005): 0.6725 relative change
- Cell water (relative change) ([1]; Fig 5b trace, Time 28.005): 0.7341 relative change
- Cell water (relative change) ([1]; Fig 5b trace, Time 29.0051): 0.8379 relative change
- Cell water (relative change) ([1]; Fig 5b trace, Time 30.005): 0.9275 relative change
- Cell water (relative change) ([1]; Fig 5b trace, Time 31.005): 0.981 relative change
- Cell water (relative change) ([1]; Fig 5b trace, Time 32.005): 1.048 relative change
- Cell water (relative change) ([1]; Fig 5b trace, Time 33.0052): 1.114 relative change
- Cell water (relative change) ([1]; Fig 5b trace, Time 34.0052): 1.157 relative change
- Cell water (relative change) ([1]; Fig 5b trace, Time 35.0052): 1.203 relative change
- Cell water (relative change) ([1]; Time 1.0036): 0.9714
- Cell water (relative change) ([1]; Time 2.0038): 1.0042
- Cell water (relative change) ([1]; Time 3.0038): 1.0139
- Cell water (relative change) ([1]; Time 4.0037): 0.9906
- Cell water (relative change) ([1]; Time 5.0037): 1.0199
- Cell water (relative change) ([1]; Time 6.0037): 0.4476
- Cell water (relative change) ([1]; Time 7.0039): 0.4233
- Cell water (relative change) ([1]; Time 8.0040): 0.4625
- Cell water (relative change) ([1]; Time 9.0042): 0.4683
- Cell water (relative change) ([1]; Time 10.0039): 0.4401
- Cell water (relative change) ([1]; Time 11.0039): 0.4457
- Cell water (relative change) ([1]; Time 12.0039): 0.4507
- Cell water (relative change) ([1]; Time 13.0041): 0.4223
- Cell water (relative change) ([1]; Time 14.0041): 0.4334
- Cell water (relative change) ([1]; Time 15.0040): 0.4490
- Cell water (relative change) ([1]; Time 16.0040): 0.4184
- Cell water (relative change) ([1]; Time 17.0040): 0.3961
- Cell water (relative change) ([1]; Time 18.0045): 0.4241
- Cell water (relative change) ([1]; Time 19.0042): 0.4174
- Cell water (relative change) ([1]; Time 20.0042): 0.4139
- Cell water (relative change) ([1]; Time 21.0042): 0.4233
- Cell water (relative change) ([1]; Time 22.0041): 0.4177
- Cell water (relative change) ([1]; Time 23.0044): 0.4195
- Cell water (relative change) ([1]; Time 24.0044): 0.4281
- Cell water (relative change) ([1]; Time 25.0043): 0.4058
- Cell water (relative change) ([1]; Time 26.0043): 0.5463
- Cell water (relative change) ([1]; Time 27.0043): 0.6294
- Cell water (relative change) ([1]; Time 28.0045): 0.7254
- Cell water (relative change) ([1]; Time 29.0044): 0.8393
- Cell water (relative change) ([1]; Time 30.0044): 0.8966
- Cell water (relative change) ([1]; Time 31.0046): 1.0008
- Cell water (relative change) ([1]; Time 32.0046): 1.0678
- Cell water (relative change) ([1]; Time 33.0046): 1.1243
- Cell water (relative change) ([1]; Time 34.0045): 1.1834
- Cell water (relative change) ([1]; Time 35.0045): 1.2456
- regulatory volume increase (RVI) response of primary cortical neurons ([1]; hyperosmotic stress 370 mOsm, ZT-1a 3 μM, BMT 10 μM): no RVI response
- cell shrinkage of primary cortical neurons ([1]; hypertonic 370 mOsm/kg H2O, earlier manuscript version quoted in peer-review file): 86%
- initial rate of cell shrinkage ([1]; hypertonic stress, earlier manuscript version quoted in peer-review file): 45 ± 4 % vol/min
- neurons exhibiting RVI / cells analysed ([1]; hypertonicity-mediated osmotic shrinkage, three cultures): 0/46
- 86Rb+ uptake (HEK-293 cells; Hypotonic low Cl-): 1107.6 and 1237.8 and 1137.4 and 1021.4 and 1200.9 and 1076.2
- 86Rb+ uptake (HEK-293 cells; Isotonic control): 803.5 and 942.1 and 914.8 and 786.4 and 978.4 and 901.5
- regulatory volume increase (RVI) in human fibroblast cells (human fibroblast cells): absence of RVI

Structure (SMILES): CC(C)(C)NC(=O)c1cncn1C1CCN(c2ccc(-c3nnc(C(F)(F)F)o3)cn2)CC1 [WNK463]
- Infarct volume (mm3) ([2]; Fig 9b, group WNK463, individual mice): 59.9 mm3 and 47.6 mm3 and 101.01 mm3 and 100.21 mm3
- Hemisphere swelling (%) ([2]; Fig 9c, group WNK463, individual mice): 22.63% and 14.43% and 26.7% and 16.53%
- infarct volume and hemispheric swelling (neuroprotection) ([2]; WNK463 2.5 mg/kg, 24 h post reperfusion, 2.5 mg/kg): reduced neither infarct volume nor hemispheric swelling; also recorded: not neuroprotective
- adverse effects in mice (mice): ataxia and breathing difficulties
